Experimental data reported in PubChem BioAssay (NCI).
Values joined by “and” are separate entries in the source; they are usually repeats but may differ in a detail not shown here. Equal entries are not always repeated.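 Exposure lasted 48 hours, with cells grown in 96-well plates and compounds tested at five concentrations. GI50: concentration for 50% inhibition of growth. The concentration for full growth arrest is given as TGI.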

Tests used:
Assay in all cases: NCI anticancer screen, dose series, 48 h
[1] = tested on: HL-60(TB) leukemia
[2] = tested on: HT29 colon
[3] = tested on: LOX IMVI melanoma
[4] = tested on: MALME-3M melanoma
[5] = tested on: MDA-MB-231 breast
[6] = tested on: NCI-H460 lung
[7] = tested on: RPMI-8226 leukemia
[8] = tested on: SF-268 CNS
[9] = tested on: SF-295 CNS
[10] = tested on: SK-MEL-5 melanoma

Structure (SMILES) | GI50 [1] | TGI [1] | GI50 [2] | TGI [2] | GI50 [3] | TGI [3] | GI50 [4] | TGI [4] | GI50 [5] | TGI [5] | GI50 [6] | TGI [6] | GI50 [7] | TGI [7] | GI50 [8] | TGI [8] | GI50 [9] | TGI [9] | GI50 [10] | TGI [10]
COc1cc(NC(=O)CSc2nc3ccc(C)cc3c(=O)n2Cc2ccccc2)cc(OC)c1OC | > 100 µM | > 100 µM | > 100 µM | > 100 µM | 55 µM | > 100 µM | 4.07 µM | 31.3 µM | 3.42 µM | > 100 µM | 7.24 µM | > 100 µM | 69.3 µM | > 100 µM | 6.91 µM | > 100 µM | 7.01 µM | > 100 µM | 3.67 µM | 23.7 µM
COc1cc2c(cc1OCCCCCOc1ccc(-n3c(C)nc4ccccc4c3=O)cc1)N=C[C@@H]1CCCN1C2=O | 0.34 µM | 1.3 µM | 0.317 µM | > 100 µM | 0.176 µM | 0.447 µM | 0.236 µM | 0.585 µM | 0.188 µM | 0.636 µM | 0.248 µM | 0.691 µM | 0.204 µM | 0.545 µM | 0.376 µM |  | 0.391 µM | 1.83 µM | 0.176 µM | 0.353 µM
COc1ccccc1N1CCN(CCc2c[nH]c3cc4c(cc23)OCO4)CC1 | 10.4 µM | > 100 µM | 3.39 µM | > 100 µM | 11.6 µM | 35.7 µM | 27.9 µM | > 100 µM | 21.4 µM | 77.7 µM | 15.5 µM | > 100 µM | 25.1 µM | > 100 µM | 35.6 µM | > 100 µM | 0.646 µM | 27.7 µM | 13.2 µM | 26.2 µM
CC1(O)CC(c2nc(-c3ccc4ccc(-c5ccccc5)nc4c3)c3c(N)nccn23)C1 (stereo not drawn) |  | 25.8 µM and > 10 µM | 0.105 µM and 0.0588 µM | 21.5 µM and > 10 µM | 7.41 µM and 6.46 µM | 45.4 µM and > 10 µM | 7.95 µM and > 10 µM | 38.2 µM and > 10 µM | 6.97 µM and 5.12 µM | 38.1 µM and > 10 µM | 2.7 µM and 1.5 µM | 24.8 µM and > 10 µM | 6.55 µM and 3.98 µM | 31.9 µM and > 10 µM | 12.9 µM and > 10 µM | 55.3 µM and > 10 µM | 12.5 µM and > 10 µM | 48.1 µM and > 10 µM | 3.38 µM | 14.9 µM
Cc1cc(NCc2cc(Nc3ccnc4cc(Cl)ccc34)ccc2F)nc(N2CCN(C)CC2)n1 | 1.68 µM | 3.67 µM | 1.72 µM | 5.13 µM | 1.26 µM | 2.65 µM | 1.84 µM | 3.66 µM | 1.64 µM | 3.74 µM | 1.5 µM | 3.31 µM | 1.32 µM | 3.65 µM | 1.81 µM | 4.53 µM | 1.09 µM | 2.55 µM | 1.69 µM | 3.07 µM
CN(C)CC1C(=O)O[C@H]2[C@H]1CC/C(COC(=O)c1cc3ccccc3[nH]1)=C\CC[C@@]1(C)O[C@@H]21 (stereo partly drawn) | 0.663 µM | 3.53 µM | 0.671 µM | 2.57 µM | 0.5 µM | 0.992 µM | 1.8 µM | 4.56 µM | 2 µM | 4.63 µM | 7.35 µM | 25.6 µM | 0.354 µM | 2.11 µM | 1.65 µM | 3.43 µM | 4.87 µM | 18.5 µM | 1.84 µM | 3.57 µM
CNCCNc1c2c(c(NCCNC)c3[nH]ccc13)C(=O)c1ccccc1C2=O | 0.195 µM | 0.838 µM | 1.35 µM | 5.23 µM | < 0.0231 µM | 0.0717 µM | 0.258 µM | 1.32 µM | 0.1 µM | 0.33 µM | 0.0991 µM | 0.501 µM | 0.051 µM | 0.214 µM | 0.222 µM | 0.876 µM | 0.139 µM | 0.901 µM | 0.421 µM | 0.901 µM
